Data as given in the supplement of paper PMC11451515.

Tests used:
Conditions in all cases: 48 h
[1] = test system: SEM cells; experiment: AUC of viability dose-response curve (% viability x log10 dose units); higher = less sensitive
In short: (§1)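 Library compounds in DMSO were applied for 48 h at 37°C at 11 threefold doses (47 μM to 0.79 nM) to medium-adapted leukemia cells in 1536-well plates holding 500 or 1000 cells/well. Luminescence from CellTiter-Glo One was normalised plate by plate against DMSO and cell-free wells. Area under the curve came from trapezoidal integration of a log-logistic fit, after scaling curves that rose above full viability and discarding those that failed quality control. The fit had four parameters and used log10 doses.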

[2] = test system: P12-Ichikawa; experiment: as above
In short: as §1

[3] = test system: NOMO1; experiment: as above
In short: as §1

[4] = test system: SEM cells; experiment: cell viability relative to DMSO control; higher = less cytotoxic
In short: (§2)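 In 1536-well plates, 5 μl of leukemia cells were seeded per well: 500 cells/well for NOMO1 or SEM and 1000 cells/well for P12-Ichikawa. Each line had first been adapted for at least four passages in each medium. Library compounds in DMSO were pin-dosed at 11 threefold concentrations between 47 μM and 0.79 nM, and CellTiter-Glo One luminescence was read after 48 h at 37°C. Viability is a per-plate percentage relative to DMSO wells, with cell-free wells as background.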

[5] = test system: P12-Ichikawa; experiment: as above
In short: as §2

[6] = test system: NOMO1; experiment: as above
In short: as §2

CC(C)c1cccc(C(C)C)c1O
AUC of viability dose-response curve
Conditions	[1]	[2]	[3]
HPLM + 10% dialyzed FBS	453	453	463
RPMI 5 mM glucose + 10% FBS	459	463	453
RPMI 5 mM glucose + 10% dialyzed FBS	469	447	455

CN1CCN(c2ncc(-c3cc(Cl)cc(Cl)c3Cl)c(N)n2)CC1
cell viability [%], [4]
Conditions	RPMI 5 mM glucose + 10% FBS	RPMI 5 mM glucose + 10% dialyzed FBS
0.000781 µM	111	106
0.00234 µM	117	118
0.00702 µM	133	117
0.0211 µM	137	133
0.0632 µM	135	139
0.19 µM	135	135
0.569 µM	126	150
1.71 µM	135	141
5.12 µM	155	144
15.4 µM	138	141
46.1 µM	132	132

AUC of viability dose-response curve
Conditions	HPLM + 10% dialyzed FBS	RPMI 5 mM glucose + 10% FBS	RPMI 5 mM glucose + 10% dialyzed FBS
[1]	467	459	450
[3]	337	305	341

CCC(=O)O[C@@]1(CC[C@H]2[C@@H]3CCC/4=C/C(=O)CC[C@]4(C)[C@H]3CC[C@]12C)C(=O)CO
cell viability [%]
Conditions	[4]	[5]	[6]
HPLM + 10% dialyzed FBS, 0.000781 µM	95.3	99.2	75.8
HPLM + 10% dialyzed FBS, 0.00234 µM	100	107	115
HPLM + 10% dialyzed FBS, 0.00702 µM	101	104	103
HPLM + 10% dialyzed FBS, 0.0211 µM	110	115	111
HPLM + 10% dialyzed FBS, 0.0632 µM	109	110	119
HPLM + 10% dialyzed FBS, 0.19 µM	98.8	116	128
HPLM + 10% dialyzed FBS, 0.569 µM	86.7	125	106
HPLM + 10% dialyzed FBS, 1.71 µM	57.4	107	140
HPLM + 10% dialyzed FBS, 5.12 µM	46.1	98.9	108
HPLM + 10% dialyzed FBS, 15.4 µM	27.3	83.7	85.4
HPLM + 10% dialyzed FBS, 46.1 µM	23.7	83.1	78.7
RPMI 5 mM glucose + 10% FBS, 0.000781 µM	63.3	91.6	109
RPMI 5 mM glucose + 10% FBS, 0.00234 µM	83.6	122	112
RPMI 5 mM glucose + 10% FBS, 0.00702 µM	86	109	106
RPMI 5 mM glucose + 10% FBS, 0.0211 µM	84	113	111
RPMI 5 mM glucose + 10% FBS, 0.0632 µM	84.8	112	107
RPMI 5 mM glucose + 10% FBS, 0.19 µM	76.1	118	118
RPMI 5 mM glucose + 10% FBS, 0.569 µM	51	109	115
RPMI 5 mM glucose + 10% FBS, 1.71 µM	35.3	109	104
RPMI 5 mM glucose + 10% FBS, 5.12 µM	24.3	106	104
RPMI 5 mM glucose + 10% FBS, 15.4 µM	14.1	78.9	108
RPMI 5 mM glucose + 10% FBS, 46.1 µM	12.7	69.1	103
RPMI 5 mM glucose + 10% dialyzed FBS, 0.000781 µM	95.1	102	107
RPMI 5 mM glucose + 10% dialyzed FBS, 0.00234 µM	103	103	103
RPMI 5 mM glucose + 10% dialyzed FBS, 0.00702 µM	99.9	108	102
RPMI 5 mM glucose + 10% dialyzed FBS, 0.0211 µM	88.5	109	119
RPMI 5 mM glucose + 10% dialyzed FBS, 0.0632 µM	98	98.6	124
RPMI 5 mM glucose + 10% dialyzed FBS, 0.19 µM	91.7	117	122
RPMI 5 mM glucose + 10% dialyzed FBS, 0.569 µM	79.7	116	124
RPMI 5 mM glucose + 10% dialyzed FBS, 1.71 µM	47.2	106	129
RPMI 5 mM glucose + 10% dialyzed FBS, 5.12 µM	27.6	110	128
RPMI 5 mM glucose + 10% dialyzed FBS, 15.4 µM	19.5	79.9	86.1
RPMI 5 mM glucose + 10% dialyzed FBS, 46.1 µM	13.8	63	83.3

AUC of viability dose-response curve
Conditions	HPLM + 10% dialyzed FBS	RPMI 5 mM glucose + 10% FBS	RPMI 5 mM glucose + 10% dialyzed FBS
[2]	454	452	455
[3]	457	467	458

COc1cc2cc(c1Cl)N(C)C(=O)C[C@H](OC(=O)C(C)C)[C@]1(C)O[C@@H]1[C@H](C)[C@@H]1C[C@@](O)(NC(=O)O1)[C@H](OC)/C=C/C=C(\C)C2
cell viability [%]
Conditions	[4]	[5]	[6]
HPLM + 10% dialyzed FBS, 0.000781 µM	27.9	8.03	55.5
HPLM + 10% dialyzed FBS, 0.00234 µM	26	10.4	53.1
HPLM + 10% dialyzed FBS, 0.00702 µM	28.5	10	53.3
HPLM + 10% dialyzed FBS, 0.0211 µM	22.6	9.14	44.3
HPLM + 10% dialyzed FBS, 0.0632 µM	15.2	10.7	49
HPLM + 10% dialyzed FBS, 0.19 µM	9.09	8.31	41.8
HPLM + 10% dialyzed FBS, 0.569 µM	7.19	8.37	42.1
HPLM + 10% dialyzed FBS, 1.71 µM	6.56	6.69	41.8
HPLM + 10% dialyzed FBS, 5.12 µM	5.59	6.57	34.9
HPLM + 10% dialyzed FBS, 15.4 µM	4.17	5.07	35.7
HPLM + 10% dialyzed FBS, 46.1 µM	2.54	2.08	13
RPMI 5 mM glucose + 10% FBS, 0.000781 µM	21.3	9.26	32.8
RPMI 5 mM glucose + 10% FBS, 0.00234 µM	24.2	12.1	29.5
RPMI 5 mM glucose + 10% FBS, 0.00702 µM	21.4	11.2	33.7
RPMI 5 mM glucose + 10% FBS, 0.0211 µM	12.7	11.8	30.8
RPMI 5 mM glucose + 10% FBS, 0.0632 µM	9.24	11	27.3
RPMI 5 mM glucose + 10% FBS, 0.19 µM	8.39	9.9	23.5
RPMI 5 mM glucose + 10% FBS, 0.569 µM	7.82	8.75	24
RPMI 5 mM glucose + 10% FBS, 1.71 µM	6.35	8.41	19
RPMI 5 mM glucose + 10% FBS, 5.12 µM	4.76	6.23	22.4
RPMI 5 mM glucose + 10% FBS, 15.4 µM	4.03	5.36	26.4
RPMI 5 mM glucose + 10% FBS, 46.1 µM	2.1	2	9.73
RPMI 5 mM glucose + 10% dialyzed FBS, 0.000781 µM	24.3	17.5	37.2
RPMI 5 mM glucose + 10% dialyzed FBS, 0.00234 µM	24	18.1	40.4
RPMI 5 mM glucose + 10% dialyzed FBS, 0.00702 µM	20.2	16.5	36.2
RPMI 5 mM glucose + 10% dialyzed FBS, 0.0211 µM	14.5	14.6	32.1
RPMI 5 mM glucose + 10% dialyzed FBS, 0.0632 µM	8.42	14.3	22.9
RPMI 5 mM glucose + 10% dialyzed FBS, 0.19 µM	5.55	12.9	22.2
RPMI 5 mM glucose + 10% dialyzed FBS, 0.569 µM	5.76	12.2	25.4
RPMI 5 mM glucose + 10% dialyzed FBS, 1.71 µM	5.03	10.2	22.4
RPMI 5 mM glucose + 10% dialyzed FBS, 5.12 µM	4.42	8.98	25.9
RPMI 5 mM glucose + 10% dialyzed FBS, 15.4 µM	3.49	8.07	27.8
RPMI 5 mM glucose + 10% dialyzed FBS, 46.1 µM	1.84	2.84	11.8

AUC of viability dose-response curve
Conditions	HPLM + 10% dialyzed FBS	RPMI 5 mM glucose + 10% FBS	RPMI 5 mM glucose + 10% dialyzed FBS
[1]	66.3	51.6	49.3
[2]	37.9	42.6	59.7
